The text below walks through data of ChEMBL document CHEMBL1159104, “Potent transglutaminase inhibitors, aryl beta-aminoethyl ketones” (Bioorg Med Chem Lett, 2010).

Each structure is given as a SMILES string.

The IC50 is the concentration needed to halve the response being measured. Low values mean greater potency, high ones weaker potency.

The target in the assay is T1, Protein-glutamine gamma-glutamyltransferase (Cavia porcellus, UniProt Q7M0F8).
T1 sequence (Q7M0F8 whole entry): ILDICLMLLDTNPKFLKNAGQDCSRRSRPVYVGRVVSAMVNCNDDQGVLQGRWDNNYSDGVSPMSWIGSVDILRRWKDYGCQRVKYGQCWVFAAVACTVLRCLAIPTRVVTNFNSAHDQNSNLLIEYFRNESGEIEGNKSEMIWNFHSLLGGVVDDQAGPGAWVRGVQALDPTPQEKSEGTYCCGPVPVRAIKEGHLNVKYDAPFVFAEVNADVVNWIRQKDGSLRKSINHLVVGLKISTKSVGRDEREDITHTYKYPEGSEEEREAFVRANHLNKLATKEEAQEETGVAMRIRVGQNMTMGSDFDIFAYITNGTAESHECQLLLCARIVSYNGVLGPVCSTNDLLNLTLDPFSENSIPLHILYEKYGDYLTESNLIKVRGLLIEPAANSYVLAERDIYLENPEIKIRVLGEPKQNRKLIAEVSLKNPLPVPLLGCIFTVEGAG
Nature of the assay: Inhibition of guinea pig liver transglutaminase.
In the case of `CC(C)N(CCC(=O)c1cccs1)Cc1ccccc1`, the IC50 was 1.4 µM.

For `CN(CCC(=O)c1nccs1)Cc1ccccc1`, half-maximal inhibition (IC50) was put at 4.3 µM. In turn, `CC(C)(C)N(CCO)CCC(=O)c1ccco1` registered an IC50 of 4.5 µM. Consider `O=C(CCN(CCO)CCO)c1ccc(Cl)s1`, for which the 50% inhibitory concentration (IC50) amounted to 1.9 µM. For `CC(C)N(CCO)CCC(=O)c1cc(Cl)sc1Cl` the value was 2.5 µM; for `CC(C)N(CCC(=O)c1ccc(Cl)cc1)Cc1ccccc1`, 1.4 µM; for `CCN(CCC(=O)c1ccc(Cl)s1)Cc1ccccc1`, 0.42 µM. Molecule `CC(C)N(CCO)CCC(=O)c1ccccn1` gave an IC50 of 5.4 µM. For `CC(C)N(CCC(=O)c1ccc(Oc2ccccc2)cc1)Cc1ccccc1` the value was 12 µM; for `O=C(CCN(CCO)CCO)c1cccnc1`, 3.3 µM; for `CCN(CCC(=O)c1ccco1)Cc1ccccc1`, 0.55 µM.

The molecule `CC(C)N(CCO)CCC(=O)c1cnccn1` gave an IC50 of 6.9 µM.

In turn, `CC(C)N(CCC(=O)c1cc(Cl)sc1Cl)Cc1ccccc1` had an IC50 of 0.98 µM. Compared with the last molecule, the IC50 is about 7-fold lower. The molecule `O=C(CCN(CCO)Cc1ccccc1)c1ccc2c(Cl)cccc2c1` yielded an IC50 of 1.5 µM. Consider `CC(C)N(CCO)CCC(=O)c1cccs1`, for which it took 6.5 µM to reach half-maximal inhibition (IC50). This IC50 lies about 4.3-fold higher than the previous one. In turn, `CN(CCC(=O)c1ccsc1)Cc1ccccc1` had a 50% inhibitory concentration (IC50) of 10 µM. For `CCCCN(CCO)CCC(=O)c1ccncc1` the value was 2.5 µM; for `CC(C)N(CCO)CCC(=O)c1ccc(C#N)cc1`, 6.1 µM. `CCN(CCC(=O)c1cccnc1)Cc1ccccc1` registered an IC50 of 1.7 µM.

For the molecule `CCc1nccnc1C(=O)CCN(CCO)CCO`, the IC50 was found to be 15 µM. As for `CCN(CCC(=O)c1ccc(Br)s1)Cc1ccccc1`, the figure is 0.61 µM; as for `Cc1cnc(C(=O)CCN(C)Cc2ccccc2)s1`, 1.8 µM. As for `Cc1ccc(C(=O)CCN(CCO)C(C)(C)C)o1`, the figure is 0.68 µM; as for `O=C(CCN(CCO)Cc1ccccc1)c1cccnc1`, 2.3 µM; as for `CC(C)(C)N(CCC(=O)c1ccccc1)Cc1ccccc1`, 1.7 µM. For `CCN(CCC(=O)c1ccc(C)o1)Cc1ccccc1` the value was 2.8 µM.
